The source made the active and inactive calls. No cut-off for these calls is given here.
Columns and labels:
[1] = Drug metabolism in mouse liver microsomes at 1 uM after 15 mins in presence of NADPH by HPLC-MS/MS analysis; assay type: ADME, microsome; conditions: read-out: Drug metabolism
[2] = Cmax in Sprague-Dawley rat at 10 mg/kg, po administered as bolus dose by LC-MS/MS analysis; assay type: ADME, organism-based; design: dose 10 mg/kg, route oral; conditions: in vivo
Canis familiaris [3] = experiment: Half life in Beagle dog at 1 mg/kg, iv administered as bolus dose by LC-MS/MS analysis; assay type: ADME, organism-based, Canis lupus familiaris; conditions: in vivo
THP-1 = experiment: Induction of phospholipidosis in human THP1 cells at 21 uM after […] by ethidiumbromide-based fluorescence assay relative to control; assay type: cell-based; conditions: thp-1, 21 µM
[4] = Cmax in female Sprague-Dawley rat at 75 mg/kg, po measured after 1 month repeated dosing by LC-MS/MS analysis; assay type: ADME, organism-based; design: dose 75 mg/kg, route oral; conditions: in vivo
[5] = AUC (0 to infinity) in Sprague-Dawley rat at 10 mg/kg, po administered as bolus dose by LC-MS/MS analysis; assay type: ADME, organism-based; design: dose 10 mg/kg, route oral, time infinity; conditions: in vivo
Cytochrome P450 2C9 = Cytochrome P450 2C9 (Homo sapiens, UniProt P11712); experiment: Reversible inhibition of recombinant human CYP2C9 by fluorescence-based assay; assay type: ADME
Cytochrome P450 2C9, sequence (P11712 whole entry): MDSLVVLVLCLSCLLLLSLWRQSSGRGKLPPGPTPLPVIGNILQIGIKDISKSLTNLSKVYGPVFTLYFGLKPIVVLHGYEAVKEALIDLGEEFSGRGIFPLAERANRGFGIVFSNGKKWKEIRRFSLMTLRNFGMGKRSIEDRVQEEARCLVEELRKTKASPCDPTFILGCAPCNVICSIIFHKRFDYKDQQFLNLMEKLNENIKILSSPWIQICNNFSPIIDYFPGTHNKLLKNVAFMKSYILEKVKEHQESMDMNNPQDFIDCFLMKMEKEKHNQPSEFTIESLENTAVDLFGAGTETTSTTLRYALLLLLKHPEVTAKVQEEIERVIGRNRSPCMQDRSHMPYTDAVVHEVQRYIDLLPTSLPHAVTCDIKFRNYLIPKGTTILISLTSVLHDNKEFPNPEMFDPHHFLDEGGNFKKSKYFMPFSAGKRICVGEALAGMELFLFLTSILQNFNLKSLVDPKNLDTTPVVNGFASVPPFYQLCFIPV

Canis familiaris [6] = experiment: Systemic clearance in Beagle dog at 1 mg/kg, iv administered as bolus dose by LC-MS/MS analysis relative to liver blood flow; assay type: ADME, organism-based, Canis lupus familiaris; conditions: in vivo
[7] = Tmax in Sprague-Dawley rat at 10 mg/kg, po administered as bolus dose by LC-MS/MS analysis; assay type: ADME, organism-based; conditions: in vivo
[8] = AUC (0 to infinity) in Swiss mouse at 10 mg/kg, po administered as bolus dose by LC-MS/MS analysis; assay type: ADME, organism-based; design: dose 10 mg/kg, time infinity, route oral; conditions: in vivo
Canis familiaris [9] = experiment: Toxicity in Beagle dog assessed as induction of appearance changes at 0.63 to 20 mg/kg, po qd for 6 days; assay type: organism-based, Canis lupus familiaris; conditions: in vivo, 144 h
[10] = Clearance in Swiss mouse at 2.5 mg/kg, iv administered as bolus dose by LC-MS/MS analysis; assay type: ADME, organism-based; conditions: in vivo
TK6 = experiment: Genotoxicity in human TK6 cells at 188 ug/ml after 4 hrs in presence of rat liver S9 fraction by micronucleus assay; assay type: toxicity, cell-based; conditions: s9, 4 h
Cavia porcellus = experiment: Cardiotoxicity in anesthetized guinea pigs assessed as drug level causing QTcB prolongation dosed up to 10 mg/kg, iv administered over a period of 5 min at 15 min interval by ECG analysis; assay type: toxicity, organism-based; conditions: guinea pig, in vivo
[11] = Oral bioavailability in Swiss mouse at 10 mg/kg administered as bolus dose by LC-MS/MS analysis; assay type: ADME, organism-based; conditions: in vivo
[12] = Tmax in Beagle dog at 10 mg/kg, po administered as bolus dose by LC-MS/MS analysis; assay type: ADME, organism-based, Canis lupus familiaris; conditions: in vivo
Canis familiaris [13] = experiment: Toxicity in beagle dog assessed as induction of ataxia at 70 to 250 mg/kg/day, po qd for 1 week; assay type: organism-based, Canis lupus familiaris; conditions: in vivo, 168 h
Canis familiaris [14] = experiment: Toxicity in Beagle dog assessed as drug tolerability up to 20 mg/kg, po; assay type: organism-based, Canis lupus familiaris; conditions: in vivo
Cytochrome P450 2C8 = Cytochrome P450 2C8 (Homo sapiens, UniProt P10632); experiment: Reversible inhibition of recombinant human CYP2C8 by fluorescence-based assay; assay type: ADME
Cytochrome P450 2C8, sequence (P10632 whole entry): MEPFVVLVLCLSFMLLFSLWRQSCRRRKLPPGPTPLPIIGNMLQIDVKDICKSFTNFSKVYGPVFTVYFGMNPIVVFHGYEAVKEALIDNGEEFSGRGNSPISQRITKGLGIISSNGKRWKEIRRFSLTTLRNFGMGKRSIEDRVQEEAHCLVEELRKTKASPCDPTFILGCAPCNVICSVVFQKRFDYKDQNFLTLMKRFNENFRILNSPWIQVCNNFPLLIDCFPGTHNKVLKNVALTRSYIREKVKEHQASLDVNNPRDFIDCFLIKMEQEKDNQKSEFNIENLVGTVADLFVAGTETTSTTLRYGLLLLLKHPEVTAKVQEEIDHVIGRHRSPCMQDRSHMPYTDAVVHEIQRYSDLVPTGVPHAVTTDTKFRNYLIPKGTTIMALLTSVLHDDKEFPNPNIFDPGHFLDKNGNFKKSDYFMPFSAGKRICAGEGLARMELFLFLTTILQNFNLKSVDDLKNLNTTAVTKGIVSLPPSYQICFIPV

Canis familiaris [15] = experiment: Toxicity in Beagle dog assessed as induction of behavioural changes at 0.63 to 20 mg/kg, po qd for 6 days; assay type: organism-based, Canis lupus familiaris; conditions: in vivo, 144 h
Beta-secretase 1 = Beta-secretase 1 (Homo sapiens, UniProt P56817); experiment: Inhibition of BACE1 in human SKNBE2 cells transfected with APP695 protein assessed as reduction in amyloid beta (1 to 42) levels after 18 hrs by sandwich alphalisa assay; assay type: cell-based
Beta-secretase 1, sequence (P56817 whole entry): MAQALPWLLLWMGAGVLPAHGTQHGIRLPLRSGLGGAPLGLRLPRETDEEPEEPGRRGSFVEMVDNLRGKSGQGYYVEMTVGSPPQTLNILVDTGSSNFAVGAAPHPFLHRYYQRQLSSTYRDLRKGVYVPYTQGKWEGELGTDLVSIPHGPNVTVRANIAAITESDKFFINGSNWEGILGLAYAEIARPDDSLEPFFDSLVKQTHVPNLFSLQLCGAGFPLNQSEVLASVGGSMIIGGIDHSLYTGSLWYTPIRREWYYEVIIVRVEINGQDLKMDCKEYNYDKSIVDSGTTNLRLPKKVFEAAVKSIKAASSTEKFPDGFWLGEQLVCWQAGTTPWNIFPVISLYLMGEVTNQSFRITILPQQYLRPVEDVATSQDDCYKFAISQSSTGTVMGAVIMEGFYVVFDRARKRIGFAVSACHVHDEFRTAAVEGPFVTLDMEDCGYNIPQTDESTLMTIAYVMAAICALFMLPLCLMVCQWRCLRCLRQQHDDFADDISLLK

[16] = Fraction unbound in rat plasma at 5 uM after 4.5 hrs by HPLC-MS/MS method based rapid equilibrium dialysis; assay type: ADME, cell-free
Salmonella typhimurium [17] = experiment: Mutagenicity in Salmonella typhimurium TA98 up to 500 ug/ml in absence of rat liver S9 fraction by Ames 2 assay; assay type: toxicity, organism-based; conditions: salmonella enterica subsp. enterica serovar typhimurium
Cytochrome P450 3A4 [18] = target: T1, Cytochrome P450 3A4 (Homo sapiens, UniProt P08684); experiment: Reversible inhibition of recombinant human CYP3A4 by fluorescence-based assay; assay type: ADME
T1 sequence (P08684 whole entry): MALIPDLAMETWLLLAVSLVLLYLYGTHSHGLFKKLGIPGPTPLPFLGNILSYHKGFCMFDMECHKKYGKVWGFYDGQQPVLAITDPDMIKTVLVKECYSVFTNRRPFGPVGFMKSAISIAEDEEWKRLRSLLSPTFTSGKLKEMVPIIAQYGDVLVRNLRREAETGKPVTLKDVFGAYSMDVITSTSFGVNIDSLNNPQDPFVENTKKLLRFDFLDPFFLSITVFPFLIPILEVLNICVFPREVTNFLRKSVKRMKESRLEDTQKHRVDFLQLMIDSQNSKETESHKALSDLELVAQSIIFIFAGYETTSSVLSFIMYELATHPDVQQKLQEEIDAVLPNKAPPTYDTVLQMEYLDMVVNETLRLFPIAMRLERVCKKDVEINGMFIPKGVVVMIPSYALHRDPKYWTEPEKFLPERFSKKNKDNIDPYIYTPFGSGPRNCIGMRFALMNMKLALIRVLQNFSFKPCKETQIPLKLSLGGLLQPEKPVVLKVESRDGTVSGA

[19] = Cmax in Swiss mouse at 10 mg/kg, po administered as bolus dose by LC-MS/MS analysis; assay type: ADME, organism-based; design: dose 10 mg/kg, route oral; conditions: in vivo
Canis familiaris [20] = experiment: Antialzheimer activity in po dosed Beagle dog assessed as reduction in CSF amyloid beta (1 to 42) levels measured after 49 hrs post dose by MesoScale electrochemiluminescence; conditions: Canis lupus familiaris
[21] = Ratio of drug level in liver to plasma of Sprague-Dawley rat at 10 mg/kg, po; assay type: ADME, organism-based
Canis familiaris [22] = experiment: Toxicity in male beagle dog assessed as induction of pigmentation at 20 to 250 mg/kg/day, po qd for 1 month; assay type: organism-based, Canis lupus familiaris; conditions: in vivo
[23] = AUC (0 to 24 hrs) in female Sprague-Dawley rat at 75 mg/kg, po measured after 1 month repeated dosing by LC-MS/MS analysis; assay type: ADME, organism-based; design: time < 24 hr, dose 75 mg/kg, route oral; conditions: in vivo
[24] = Toxicity in male beagle dog at 20 to 250 mg/kg/day, po qd for 1 month; assay type: organism-based, Canis lupus familiaris; conditions: in vivo
Rattus norvegicus = experiment: Toxicity in female Sprague-Dawley rat assessed as increase in formation of foamy macrophages in lungs at 75 mg/kg/day, po administered via gavage for 1 month; assay type: organism-based; conditions: in vivo
[25] = Fraction unbound in dog plasma at 5 uM after 4.5 hrs by HPLC-MS/MS method based rapid equilibrium dialysis; assay type: ADME, cell-free, Canis lupus familiaris
Canis familiaris [26] = experiment: Toxicity in male beagle dog at 20 to 250 mg/kg/day, po qd for 1 month followed by 1 month recovery period; assay type: organism-based, Canis lupus familiaris; conditions: in vivo
Canis familiaris [27] = experiment: Toxicity in Beagle dog assessed as drug tolerability at 0.63 to 20 mg/kg, po qd for 6 days; assay type: organism-based, Canis lupus familiaris; conditions: in vivo, 144 h
Salmonella typhimurium [28] = experiment: Mutagenicity in Salmonella typhimurium TAmix up to 500 ug/ml in absence of rat liver S9 fraction by Ames 2 assay; assay type: toxicity, organism-based; conditions: salmonella enterica subsp. enterica serovar typhimurium
[29] = AUC (0 to 24 hrs) in male Beagle dog at 70 mg/kg, po measured after 1 month repeated dosing by LC-MS/MS analysis; conditions: in vivo
[30] = AUC (0 to 24 hrs) in female Beagle dog at 70 mg/kg, po measured after 1 month repeated dosing by LC-MS/MS analysis; conditions: in vivo
[31] = Half life in Sprague-Dawley rat at 2.5 mg/kg, iv administered as bolus dose by LC-MS/MS analysis; assay type: ADME, organism-based; conditions: in vivo
Cytochrome P450 3A4 [32] = target: T1, Cytochrome P450 3A4; experiment: Time dependent inhibition of recombinant human CYP3A4 by fluorescence-based assay; assay type: ADME; conditions: recombinant enzyme
Canis familiaris [33] = experiment: Volume of distribution at steady state in Beagle dog at 1 mg/kg, iv administered as bolus dose by LC-MS/MS analysis; assay type: ADME, organism-based, Canis lupus familiaris; conditions: in vivo
[34] = Safety index, ratio of NOAEL for cardiotoxicity in anesthetized guinea pigs assessed as total drug level causing QTcB prolongation dosed up to 10 mg/kg, iv administered over a period of 5 min at 15 mins interval by ECG analysis to EC50 for Antialzheimer activity in po dosed Beagle dog assessed as reduction in amyloid beta (1 to 40) levels measured after 1 hr post dose by ELISA; assay type: toxicity, organism-based; conditions: guinea pig, in vivo
Homo sapiens = species on record: Homo sapiens; experiment: Selectivity for BACE1 (unknown origin) over BACE2 (unknown origin)

Compound: C[C@]1(c2cc(NC(=O)c3ccc(C#N)cn3)ccc2F)N=C(N)CO[C@H]1C(F)(F)F
- metabolised at 0.25 h, 1 µM [1]: 13%
- Cmax [2]: 160 nM
- t1/2 (Canis familiaris [3]): 12 h
- fold change (FC) (THP-1): 2
- Cmax at 1 month [4]: 2720 ng/mL
- AUC(0-inf) [5]: 1220 ng·h/mL
- IC50 (Cytochrome P450 2C9): > 30 µM
- CL (Canis familiaris [6]): 25%
- Tmax [7]: 2 h
- AUC(0-inf) [8]: 1330 ng·h/mL
- Activity (Canis familiaris [9]): Non-Toxic
- clearance [10]: 69 mL/min/kg
- Activity (TK6): Non-Toxic
- LOAEL (Cavia porcellus): 11500 ng/mL
- NOAEL (Cavia porcellus): 5235 ng/mL
- fLOAEL (Cavia porcellus): 10.1 µM
- fNOAEL (Cavia porcellus): 4.6 µM
- bioavailability [11]: 45%
- Tmax [12]: 2 h
- Activity (Canis familiaris [13]): Toxic
- Activity (Canis familiaris [14]): Non-Toxic
- IC50 (Cytochrome P450 2C8): > 30 µM
- Activity (Canis familiaris [15]): Non-Toxic
- IC50 (Beta-secretase 1): 0.006 µM
- fraction unbound at 4.5 h, 5 µM [16]: 0.26
- Activity (Salmonella typhimurium [17]): Non-Toxic
- IC50 (Cytochrome P450 3A4 [18]): > 30 µM
- Cmax [19]: 333 nM
- Activity (Canis familiaris [20]): Active
- Kp [21]: 31
- Activity (Canis familiaris [22]): Non-Toxic
- AUC at 24 h [23]: 38800 ng·h/mL
- NOAEL at 1 month [24]: 70 mg/kg/day
- Activity (Rattus norvegicus): Toxic
- fraction unbound at 4.5 h, 5 µM [25]: 0.26
- Activity (Canis familiaris [26]): Non-Toxic
- Activity (Canis familiaris [27]): Non-Toxic
- Activity (Salmonella typhimurium [28]): Non-Toxic
- AUC at 24 h [29]: 26300 ng·h/mL
- AUC at 24 h [30]: 23100 ng·h/mL
- half-life [31]: 3.9 h
- TDI (Cytochrome P450 3A4 [32]): Not Active
- Vdss (Canis familiaris [33]): 7.6 L/kg
- selectivity ratio [34]: 50
- Selectivity ratio (Homo sapiens): 10
